The record followed here is patent publication US20200181121A1, “Cocrystal of Telmisartan and Hydrochlorothiazide” (SHANGHAI INSTITUTE OF MATERIA MEDICA, CHINESE ACADEMY OF …, priority 2017, published 2020).

SMILES strings stand for the structures.

The data set can be described thus: Accelerated stability test (ICH Q1E), change of the content. The format is physicochemical. To be noted: 40°C±2°C, RH 75±5%, polyethylene-sealed bag. On the procedure:
According to the description in “Stability Data Evaluation” of ICH guidelines Q1E, a comparison of accelerated stability test (at 40° C.±2° C., RH 75±5%) of cocrystal of hydrochlorothiazide and telmisartan obtained in Example 1 with that of telmisartan or hydrochlorothiazide itself was conducted respectively. The cocrystal of telmisartan and hydrochlorothiazide, telmisartan, and hydrochlorothiazide were double packaged using the polyethylene-sealed bag respectively, stood for 1, 2 or 3 months under the accelerated stability test conditions (at 40° C.±2° C., RH 75±5%). Then the samples were taken and measured for the change of the content.

Take `NS(=O)(=O)c1cc2c(cc1Cl)NCNS2(=O)=O` [Hydrochlorothiazide, 6-chloro-3,4-dihydro-2H-1,2,4-benzothiadiazine-7-sulfonamido-1,1-dioxide]: the content of hydrochlorothiazide is on record as 100% (0 month), 97.37% (1 month), 96.34% (2 months) and 95.28% (3 months).

On to `CCCc1nc2c(C)cc(-c3nc4ccccc4n3C)cc2n1Cc1ccc(-c2ccccc2C(=O)O)cc1` [Telmisartan, 4′-[[2-propyl-4-methyl-6(1-methyl-benzimidazol-2-yl)-benzimidazol-1-yl]methyl]-2-biphenylcarboxylic acid], for which the content of telmisartan is, setting by setting: (0 month) 100%; (1 month) 97.28%; (2 months) 94.47%; (3 months) 94.20%.
